The values below come from patent US4877734A, “Microbiologically produced α-acetylamino cinnamic acid acylase, method of its production and its use” (Degussa Aktiengesellschaft and Gesellschaft fur …, priority 1986, dated 1989).

For data set [1], the system named is ACA acylase. Nature of the data set: Substrate specificity, test 3: peptides and N-acyl phenylalanines, amino acids detected with amino acid analyzer. Type of data set: biochemical, Brevibacterium spec. Conditions: for Activity / Relative Activity: 50 mM substrate, pH 7.5, 30° C.; for Activity: 0.1 U/ml ACA acylase; for Relative Activity: relative to α-acetylamino cinnamic acid = 100%. Here is the method: Other substrates used were N-acetyl-L-phenylalanine, N-methoxycarbonyl-D,L-phenylalanine and various peptides. The test batch contained in these instances:
0.1 M potassium phosphate buffer (pH 7.5)
(§1) The batches (1 ml altogether) were agitated (30° C.) and samples were taken at different times. The amino acids produced by the acylase action were quantitatively detected with the aid of an amino acid analyzer. The activity of the enzymes is also indicated in this instance in international units-an activity of 1 U corresponds to the formation of 1 μmole amino acid per minute. The activities measured with the 3 test batches are listed in column 2 of Table 6 in mU/ml. For the determination of the relative activity (column 3 of Table 6), the activity of the α-acetylamino cinnamic acid as substrate was set equal to 100%.

For data set [2], the system named is ACA acylase. Nature of the data set: Influences of inhibitors and activators on ACA acylase activity (standard conditions, coupled test with D-2-hydroxy-4-methylpentanoic acid dehydrogenase). It counts as biochemical, Brevibacterium spec. As to the method: 0.1 M phosphate buffer for pH 7.5
(§2) limiting amounts of ACA acylase.
(Deviation: The tests with bivalent metal ions were performed in 0.1M tris/HCl buffer for pH 8.0.)

For data set [3] the following is noted: at 25° C.; cited from earlier work.
Data set [4] concerns ACA acylase. Put plainly: Substrate specificity, test 2: α-acetylamino acrylic acid, photometric test coupled with L-alanine dehydrogenase. Type of data set: biochemical, Brevibacterium spec. As to the method: 2. Test with α-acetylamino acrylic acid:
50 mM α-acetyl amino acrylic acid
1 U/ml L--alanine dehydrogenase
The activity was measured in an analogous manner (by a photometric test at 340 nm) (1 μmole NADH decrease would correspond to 1 μmole formation of alanine).
as §1

Data set [5] has as its system ACA acylase. Put plainly: Substrate specificity, test 1: α-acetylamino cinnamic acid, photometric test coupled with L-phenylalanine dehydrogenase. It counts as biochemical, Brevibacterium spec. As to the method: In a series of parallel batches, the substrate α-acetylamino cinnamic acid was replaced by other compounds and tested to see to what extent the enzyme accepts other substrates. The following test batches were used depending on the substrate used:
1. Test with α-acetylamino cinnamic acid as substrate:
50 mM α-acetylamino cinnamic acid
The activity was measured (at 340 nm) by a photometric test as described in Example 1.
as §1

Data set [6] deals with ACA acylase. Nature of the data set: Dependency of ACA acylase activity on substrate concentration, coupled with L-phenylalanine dehydrogenase (pH 8.5). Type of data set: biochemical, Brevibacterium spec. Here is the method: 0.7 mM ammonium chloride/ammonia buffer (pH 8.5)
0.5 U L--phenylalanine dehydrogenase
as §2
The α-acetylamino cinnamic acid concentration was varied within a range of 1-36 mM. […] The KM value for α-acetylamino cinnamic acid is 3.9 mM.

The test system of data set [7] is ACA acylase. Nature of the data set: Dependency of ACA acylase activity on substrate concentration, coupled with D-2-hydroxy-4-methylpentanoic acid dehydrogenase (pH 7.5). It counts as biochemical, Brevibacterium spec. As to the method: 0.1 M phosphate buffer (pH 7.5)
0.8 U D--2-hydroxy-4-methylpentanoic acid dehydrogenase
as §2
The α-acetylamino cinnamic acid concentration was varied within a range of 0.1-18 mM. […] The KM value for α-acetylamino cinnamic acid is at 0.45 mM.

Setting [8] is: reagent concentration 1 nM (so in the source), 0.1 M phosphate buffer pH 7.5, 30° C.
The mark [9] stands for this setting: reagent concentration 10 nM (so in the source), 0.1 M phosphate buffer pH 7.5, 30° C.
[10] abbreviates: bivalent metal ion, concentration 1 nM (so in the source), 0.1M tris/HCl buffer pH 8.0.
Setting [11] is: bivalent metal ion, concentration 10 nM (so in the source), 0.1M tris/HCl buffer pH 8.0.

Broadly, the Km is the concentration of substrate that gives half-maximal velocity.

Converted amounts (≈) assume the structure as drawn.

`COC(=O)NC(Cc1ccccc1)C(=O)O` (racemic) [N--methoxycarbonyl D,L--phenylalanine, N-methoxycarbonyl-D,L-phenylalanine]: in the data set on ACA acylase [1], the Activity was 0 mU.ml^-1 and the “Relative Activity” value is on record as 0%.
Turning to `O[C@H](CS)[C@H](O)CS` (racemic) [dithiothreitol], in the data set on ACA acylase [2] (addition of 1 mmole), the “Influence on the enzyme (in words)” value was “activates”. Also, the figures for the “Residual Activity” value in the data set on ACA acylase [2] (setting [8]) and in the data set on ACA acylase [2] (setting [9]) were 146% and 123%, respectively.
Regarding `c1ccc(-c2ccccn2)nc1` [2,2-dipyridyl], the “Residual Activity” value came out at 97% with ACA acylase [2] (setting [8]) and 69% with ACA acylase [2] (setting [9]).
With `OCCS` [2-mercaptoethanol], the “Residual Activity” value in the data set with ACA acylase [2] (setting [8]) and in the data set with ACA acylase [2] (setting [9]) was 100% each time.
On to `[Ca+2].[Cl-].[Cl-]` [CaCl2], for which the “Residual Activity” value in the data set with ACA acylase [2] (setting [10]) and in the data set with ACA acylase [2] (setting [11]) was 99% each time.
With `[Cl][Cd][Cl]` [CdCl2], the “Residual Activity” value with ACA acylase [2] (setting [10]) is 72%; with ACA acylase [2] (setting [11]), 29%. In addition, the “Influence on the enzyme (in words)” value with ACA acylase [2] (summary of properties) is on record as “inhibiting action”.
With `O=C(O)CN(CCN(CC(=O)O)CC(=O)O)CC(=O)O` [EDTA], the “Residual Activity” value with ACA acylase [2] (setting [8]) is 111%; in the data set with ACA acylase [2] (setting [9]), 102%.
In the case of `[Cl][Hg].[Cl][Hg]` [Hg2 Cl2], the “Influence on the enzyme (in words)” value in the data set with ACA acylase [2] (summary of properties) is on record as “inhibiting action”.
`[Cl][Hg][Cl]` [HgCl2]: the entries for the “Residual Activity” value in the data set with ACA acylase [2] (setting [10]) and in the data set with ACA acylase [2] (setting [11]) were 51% and 0%, respectively.
In the case of `[Cl-].[Cl-].[Mg+2]` [MgCl2], the “Residual Activity” value in the data set with ACA acylase [2] (setting [10]) and in the data set with ACA acylase [2] (setting [11]) was 100% throughout.
`[Cl][Mn][Cl]` [MnCl2]: the “Residual Activity” value with ACA acylase [2] (setting [10]) is listed as 63%.
For `CC(=O)N[C@@H](Cc1ccccc1)C(=O)O` [N--acetyl-L--phenylalanine, N-acetyl-L-phenylalanine], in the data set on ACA acylase [1], the Activity was 0 mU.ml^-1 and the “Relative Activity” value came to 0%. Besides, the “Substrate specificity: hydrolysis by the enzyme (in words)” value (“Substrate specificity: hydrolysis” for short) in the data set on ACA acylase [1] (summary of properties) was “not”.
Turning to `[Cl][Ni][Cl]` [NiCl2], the figures for the “Residual Activity” value in the data set on ACA acylase [2] (setting [10]) and with ACA acylase [2] (setting [11]) were 83% and 53%, respectively.
`N[C@@H](Cc1ccccc1)C(=O)O` [Phe, L-phenylalanine]: the “solubility in H2 O” value in data set [3] was 180000 µM (≈ 29.7 mg/mL).
For the compound `[Cl-].[Cl-].[Zn+2]` [ZnCl2], the entries for the “Residual Activity” value in the data set with ACA acylase [2] (setting [10]) and in the data set with ACA acylase [2] (setting [11]) were 86% and 34%, respectively.
As for `c1cnc2c(c1)ccc1cccnc12` [o-phenanthroline], the “Residual Activity” value with ACA acylase [2] (setting [8]) worked out at 72%; in the data set with ACA acylase [2] (setting [9]), 45%. Besides, the “Influence on the enzyme (in words)” value in the data set on ACA acylase [2] (summary of properties) was “inhibiting action”.
As to `N[C@@H](CCC(=O)N[C@@H](CS)C(=O)NCC(=O)O)C(=O)O` [red. glutathione], the results for the “Residual Activity” value in the data set with ACA acylase [2] (setting [8]) and in the data set with ACA acylase [2] (setting [9]) were 102% and 81%, respectively.
As for `C=C(NC(C)=O)C(=O)O` [α-acetylamino acrylic acid], in the data set with ACA acylase [4] (50 mM substrate, 0.1 U/ml ACA acylase, pH 8.0), the Activity is reported as 0 mU.ml^-1. In addition, in the data set on ACA acylase [4] (relative to α-acetylamino cinnamic acid = 100%, 50 mM substrate, pH 8.0), the “Relative Activity” value is 0%. For the same compound, in the data set with ACA acylase [4] (summary of properties), the “Substrate specificity: hydrolysis” value is listed as “not”.
Consider `CC(=O)NC(=Cc1ccccc1)C(=O)O` [α-acetylamino cinnamic acid], for which the Activity in the data set on ACA acylase [5] (50 mM substrate, 0.1 U/ml ACA acylase, pH 9.2) was 125 mU.ml^-1. Also, the “Substrate specificity: hydrolysis” value in the data set on ACA acylase [5] (summary of properties) is “hydrolyzes”. The “Relative Activity” value with ACA acylase [5] (α-acetylamino cinnamic acid set equal to 100%, 50 mM substrate, pH 9.2) was found to be 100%. For the same compound, the Km with ACA acylase [6] (pH 8.5, coupled with L-phenylalanine dehydrogenase) came out at 3900 µM; in the data set on ACA acylase [7] (pH 7.5), 450 µM; in the data set with ACA acylase [7] (pH 7.5, coupled with D-2-hydroxy-4-methylpentanoic acid dehydrogenase), 450 µM. Moreover, the “Substrate concentration at which the optimum reaction speed is achieved” value in the data set with ACA acylase [6] (pH 8.5, concentration varied 1-36 mM) is reported as 16 mM; in the data set on ACA acylase [7] (pH 7.5, concentration varied 0.1-18 mM), 5 mM.
Take L--ala-L--his: in the data set with ACA acylase [1], the Activity stood at 43 mU.ml^-1 and the “Relative Activity” value amounted to 34%.
Consider L--ala-L--phe, for which, in the data set on ACA acylase [1], the Activity worked out at 105 mU.ml^-1 and the “Relative Activity” value came to 84%.
On to L--ala-L--trp, for which, in the data set with ACA acylase [1], the Activity is reported as 66 mU.ml^-1 and the “Relative Activity” value is 53%.
Consider L--ala-L--tyr, for which, in the data set with ACA acylase [1], the Activity was determined as 78 mU.ml^-1 and the “Relative Activity” value turned out to be 62%.
The like results for L--asp-L--phe were, in that order, 38 mU.ml^-1 and 30%.
For L--his-L--phe, in the data set on ACA acylase [1], the Activity is on record as 44 mU.ml^-1 and the “Relative Activity” value came to 35%.
With L--leu-L--phe, in the data set with ACA acylase [1], the Activity turned out to be 102 mU.ml^-1 and the “Relative Activity” value stood at 82%.
Take L--leu-L--trp: in the data set with ACA acylase [1], the Activity was determined as 67 mU.ml^-1 and the “Relative Activity” value turned out to be 54%.
Consider L--leu-L--tyr, for which, in the data set with ACA acylase [1], the Activity is reported as 109 mU.ml^-1 and the “Relative Activity” value was found to be 87%.
For L--phe-L--phe, in that order: 41 mU.ml^-1 and 33%.
On to L--ser-L--phe, for which, in the data set with ACA acylase [1], the Activity worked out at 36 mU.ml^-1 and the “Relative Activity” value amounted to 29%.
Regarding gly-D-phe, in the data set with ACA acylase [1], the Activity amounted to 0 mU.ml^-1 and the “Relative Activity” value was 0%.
As to gly-L--phe, in the data set on ACA acylase [1], the Activity is reported as 40 mU.ml^-1 and the “Relative Activity” value is reported as 32%.
gly-gly-L--phe: in the data set on ACA acylase [1], the Activity came out at 0 mU.ml^-1 and the “Relative Activity” value turned out to be 0%.
Turning to p-mercuric benzoate, the “Residual Activity” value in the data set with ACA acylase [2] (setting [8]) was 41%; with ACA acylase [2] (setting [9]), 3%. Moreover, in the data set on ACA acylase [2] (summary of properties), the “Influence on the enzyme (in words)” value was “inhibiting action”.
